Results taken from article PMC5428567, “Pentameric ligand-gated ion channels exhibit distinct transmembrane domain archetypes for folding/expression and function” (Scientific Reports, 2017).

Legend:
ELIC I319A = test system: ELIC I319A; set-up: method as in Henault et al.[9], [18], [29]; conditions: Xenopus laevis oocytes; ±SD; n=11; ref Henault et al.[9], [18], [29]; cited from earlier work
ELIC I310A = test system: ELIC I310A; set-up: method as in Henault et al.[9], [18], [29]; conditions: Xenopus laevis oocytes; ±SD; n=10; ref Henault et al.[9], [18], [29]; cited from earlier work
ELIC L213A = molecular target: T1, ELIC L213A (Dickeya chrysanthemi, UniProt P0C7B7, L213A); experiment: TEVC cysteamine-induced current, ELIC L213A; format: cell-based; conditions: Xenopus laevis oocytes; ±SD; n=8
T1 construct: expressed in transfected cells; host or cells: Xenopus laevis oocytes injected with cRNA
T1 sequence (P0C7B7 whole entry L213A): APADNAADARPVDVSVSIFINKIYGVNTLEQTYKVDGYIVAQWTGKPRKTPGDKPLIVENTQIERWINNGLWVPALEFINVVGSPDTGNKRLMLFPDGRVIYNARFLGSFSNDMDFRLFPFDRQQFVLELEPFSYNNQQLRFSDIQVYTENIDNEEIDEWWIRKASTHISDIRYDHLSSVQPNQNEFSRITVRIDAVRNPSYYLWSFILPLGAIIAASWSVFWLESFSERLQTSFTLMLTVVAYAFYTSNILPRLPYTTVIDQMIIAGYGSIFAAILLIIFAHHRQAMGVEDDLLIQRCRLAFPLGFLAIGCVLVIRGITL
Text: (§1) To examine how different physical interactions at the M4-M1/M3 interface in both GLIC and ELIC (Fig. 1) influence function, we mutated each residue to Ala, and characterized how each mutation influenced agonist-induced channel gating using two-electrode voltage clamp electrophysiology. Both GLIC and ELIC are cation-selective ion channels that transiently gate open in response to agonist binding, although GLIC responds to protons while ELIC responds to primary amines, such as cysteamine, [34].
(§2) Stage V–VI oocytes were collected as previously described, injected with cRNA, and allowed to incubate one to four days at 16 °C in ND96 + buffer (5 mM HEPES, 96 mM NaCl, 2 mM KCl, 1 mM MgCl2, 1 mM CaCl2, and 2 mM Pyruvate). Whole cell currents were recorded using a two-electrode voltage clamp apparatus (OC-725C oocyte clamp; Holliston, MA). For GLIC, whole cell currents were recorded from injected oocytes (3–20 ng cRNA) immersed in MES buffer (140 mM NaCl, 2.8 mM KCl, 2 mM MgCl2, and 10 mM MES). Currents through the plasma membrane in response to pH jumps (pH 7.3 down to the indicated pH values) were measured with the transmembrane voltage clamped at voltages between −20 mV and −40 mV depending on the level of expression, typically −20 mV. […]

ELIC W219A + F303A = molecular target: T2, ELIC W219A + F303A (Dickeya chrysanthemi, UniProt P0C7B7, F303A/W219A); experiment: TEVC cysteamine-induced current, ELIC W219A + F303A; format: cell-based; conditions: Xenopus laevis oocytes; ±SD; n=8
T2 construct: expressed in transfected cells; host or cells: Xenopus laevis oocytes injected with cRNA (pTLN plasmid)
T2 sequence (P0C7B7 whole entry W219A/F303A): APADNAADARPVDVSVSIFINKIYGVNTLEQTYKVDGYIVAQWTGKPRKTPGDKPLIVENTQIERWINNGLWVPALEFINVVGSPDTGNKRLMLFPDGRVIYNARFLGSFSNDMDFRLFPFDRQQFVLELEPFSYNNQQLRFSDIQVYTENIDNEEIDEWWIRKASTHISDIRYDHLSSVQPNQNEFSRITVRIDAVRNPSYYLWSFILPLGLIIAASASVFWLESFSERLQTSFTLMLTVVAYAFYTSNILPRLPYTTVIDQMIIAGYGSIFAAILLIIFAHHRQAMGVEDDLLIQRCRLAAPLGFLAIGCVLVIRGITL
Text: as §1, §2

ELIC G268A = molecular target: T3, ELIC G268A (Dickeya chrysanthemi, UniProt P0C7B7, G268A); experiment: TEVC cysteamine-induced current, ELIC G268A; format: cell-based; conditions: Xenopus laevis oocytes; ±SD; n=8
T3 construct: expressed in transfected cells; host or cells: Xenopus laevis oocytes injected with cRNA (pTLN plasmid)
T3 sequence (P0C7B7 whole entry G268A): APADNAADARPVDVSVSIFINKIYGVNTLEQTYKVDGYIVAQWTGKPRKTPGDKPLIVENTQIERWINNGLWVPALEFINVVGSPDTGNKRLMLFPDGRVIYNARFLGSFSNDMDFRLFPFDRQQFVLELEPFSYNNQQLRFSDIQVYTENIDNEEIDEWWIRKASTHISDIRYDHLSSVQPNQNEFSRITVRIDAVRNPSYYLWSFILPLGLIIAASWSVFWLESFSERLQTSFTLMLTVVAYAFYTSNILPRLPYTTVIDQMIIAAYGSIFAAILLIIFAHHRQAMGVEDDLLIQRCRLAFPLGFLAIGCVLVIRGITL
Text: as §1, §2

ELIC P304A = molecular target: T4, ELIC P304A (Dickeya chrysanthemi, UniProt P0C7B7, P304A); experiment: TEVC cysteamine-induced current, ELIC P304A; format: cell-based; conditions: Xenopus laevis oocytes; EC50 values were not obtained
T4 construct: expressed in transfected cells; host or cells: Xenopus laevis oocytes injected with cRNA (pTLN plasmid)
T4 sequence (P0C7B7 whole entry P304A): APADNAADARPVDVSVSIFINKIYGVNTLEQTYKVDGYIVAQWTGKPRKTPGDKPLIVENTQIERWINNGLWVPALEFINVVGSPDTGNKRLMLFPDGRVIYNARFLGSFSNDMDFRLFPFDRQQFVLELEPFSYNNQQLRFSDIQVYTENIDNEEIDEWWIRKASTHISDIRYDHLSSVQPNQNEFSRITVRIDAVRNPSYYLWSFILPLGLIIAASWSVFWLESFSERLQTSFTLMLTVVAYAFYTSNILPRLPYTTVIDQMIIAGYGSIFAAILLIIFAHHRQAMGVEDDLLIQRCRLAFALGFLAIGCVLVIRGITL
Text: as §1, §2

ELIC F222A + C299A = molecular target: T5, ELIC F222A + C299A (Dickeya chrysanthemi, UniProt P0C7B7, C299A/F222A); experiment: TEVC cysteamine-induced current, ELIC F222A + C299A; format: cell-based; conditions: Xenopus laevis oocytes; ±SD; n=8
T5 construct: expressed in transfected cells; host or cells: Xenopus laevis oocytes injected with cRNA (pTLN plasmid)
T5 sequence (P0C7B7 whole entry F222A/C299A): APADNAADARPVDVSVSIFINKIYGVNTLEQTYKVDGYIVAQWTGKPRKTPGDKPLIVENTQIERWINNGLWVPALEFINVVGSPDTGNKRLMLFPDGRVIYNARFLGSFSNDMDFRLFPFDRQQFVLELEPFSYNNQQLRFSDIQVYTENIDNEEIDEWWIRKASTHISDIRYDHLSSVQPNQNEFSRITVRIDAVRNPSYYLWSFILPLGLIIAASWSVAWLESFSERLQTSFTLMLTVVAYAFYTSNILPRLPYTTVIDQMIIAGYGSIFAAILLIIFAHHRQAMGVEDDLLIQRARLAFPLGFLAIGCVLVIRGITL
Text: as §1, §2

ELIC S271A + F303A = molecular target: T6, ELIC S271A + F303A (Dickeya chrysanthemi, UniProt P0C7B7, F303A/S271A); experiment: TEVC cysteamine-induced current, ELIC S271A + F303A; format: cell-based; conditions: Xenopus laevis oocytes; ±SD; n=8
T6 construct: expressed in transfected cells; host or cells: Xenopus laevis oocytes injected with cRNA (pTLN plasmid)
T6 sequence (P0C7B7 whole entry S271A/F303A): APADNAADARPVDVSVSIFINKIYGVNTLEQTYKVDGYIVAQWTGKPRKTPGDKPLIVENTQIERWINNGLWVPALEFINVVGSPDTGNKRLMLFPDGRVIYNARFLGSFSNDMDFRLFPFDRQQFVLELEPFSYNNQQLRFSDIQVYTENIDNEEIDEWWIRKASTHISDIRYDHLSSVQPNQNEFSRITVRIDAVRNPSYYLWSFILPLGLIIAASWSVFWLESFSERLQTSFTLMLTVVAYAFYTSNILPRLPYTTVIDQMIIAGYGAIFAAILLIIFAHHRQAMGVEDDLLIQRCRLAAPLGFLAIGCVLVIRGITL
Text: as §1, §2

ELIC L204A = molecular target: T7, ELIC L204A (Dickeya chrysanthemi, UniProt P0C7B7, L204A); experiment: TEVC cysteamine-induced current, ELIC L204A; format: cell-based; conditions: Xenopus laevis oocytes; ±SD; n=8
T7 construct: expressed in transfected cells; host or cells: Xenopus laevis oocytes injected with cRNA
T7 sequence (P0C7B7 whole entry L204A): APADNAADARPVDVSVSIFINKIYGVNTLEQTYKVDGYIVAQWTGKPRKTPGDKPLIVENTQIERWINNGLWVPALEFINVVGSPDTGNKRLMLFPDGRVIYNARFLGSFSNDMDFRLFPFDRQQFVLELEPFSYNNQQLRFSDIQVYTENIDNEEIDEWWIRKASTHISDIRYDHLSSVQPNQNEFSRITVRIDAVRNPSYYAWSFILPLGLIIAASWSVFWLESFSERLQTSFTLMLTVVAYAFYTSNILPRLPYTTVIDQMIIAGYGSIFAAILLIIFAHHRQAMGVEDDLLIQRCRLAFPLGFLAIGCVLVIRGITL
Text: as §1, §2

ELIC W219A = molecular target: T8, ELIC W219A (Dickeya chrysanthemi, UniProt P0C7B7, W219A); experiment: TEVC cysteamine-induced current, ELIC W219A; format: cell-based; conditions: Xenopus laevis oocytes; ±SD; n=8
T8 construct: expressed in transfected cells; host or cells: Xenopus laevis oocytes injected with cRNA
T8 sequence (P0C7B7 whole entry W219A): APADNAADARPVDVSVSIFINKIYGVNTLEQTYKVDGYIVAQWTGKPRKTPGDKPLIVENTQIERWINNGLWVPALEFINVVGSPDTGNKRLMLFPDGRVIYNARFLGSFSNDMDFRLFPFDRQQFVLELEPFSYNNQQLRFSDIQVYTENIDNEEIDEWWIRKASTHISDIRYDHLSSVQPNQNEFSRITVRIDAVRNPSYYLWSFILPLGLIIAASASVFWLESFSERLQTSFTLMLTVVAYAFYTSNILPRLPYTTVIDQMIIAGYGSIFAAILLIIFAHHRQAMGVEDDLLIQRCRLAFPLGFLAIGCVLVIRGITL
Text: as §1, §2

ELIC L295A = test system: ELIC L295A; set-up: method as in Henault et al.[9], [18], [29]; conditions: Xenopus laevis oocytes; ±SD; n=8; ref Henault et al.[9], [18], [29]; cited from earlier work
ELIC I296A = test system: ELIC I296A; set-up: method as in Henault et al.[9], [18], [29]; conditions: Xenopus laevis oocytes; ±SD; n=10; ref Henault et al.[9], [18], [29]; cited from earlier work
ELIC G318A = test system: ELIC G318A; set-up: method as in Henault et al.[9], [18], [29]; conditions: Xenopus laevis oocytes; ±SD; n=10; ref Henault et al.[9], [18], [29]; cited from earlier work
ELIC W219A + F307A = molecular target: T9, ELIC W219A + F307A (Dickeya chrysanthemi, UniProt P0C7B7, F307A/W219A); experiment: TEVC cysteamine-induced current, ELIC W219A + F307A; format: cell-based; conditions: Xenopus laevis oocytes; ±SD; n=8
T9 construct: expressed in transfected cells; host or cells: Xenopus laevis oocytes injected with cRNA (pTLN plasmid)
T9 sequence (P0C7B7 whole entry W219A/F307A): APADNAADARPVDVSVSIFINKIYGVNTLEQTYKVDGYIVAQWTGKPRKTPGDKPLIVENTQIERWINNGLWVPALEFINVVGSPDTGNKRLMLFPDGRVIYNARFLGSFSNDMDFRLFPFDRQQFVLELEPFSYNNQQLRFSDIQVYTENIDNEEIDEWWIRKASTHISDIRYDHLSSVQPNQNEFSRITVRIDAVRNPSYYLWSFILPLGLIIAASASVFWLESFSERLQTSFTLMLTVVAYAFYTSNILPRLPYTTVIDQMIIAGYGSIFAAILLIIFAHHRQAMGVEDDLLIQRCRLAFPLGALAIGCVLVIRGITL
Text: as §1, §2

ELIC F303A = test system: ELIC F303A; set-up: method as in Henault et al.[9], [18], [29]; conditions: Xenopus laevis oocytes; ±SD; n=10; ref Henault et al.[9], [18], [29]; cited from earlier work
ELIC S271A + F307A = molecular target: T10, ELIC S271A + F307A (Dickeya chrysanthemi, UniProt P0C7B7, F307A/S271A); experiment: TEVC cysteamine-induced current, ELIC S271A + F307A; format: cell-based; conditions: Xenopus laevis oocytes; ±SD; n=8
T10 construct: expressed in transfected cells; host or cells: Xenopus laevis oocytes injected with cRNA (pTLN plasmid)
T10 sequence (P0C7B7 whole entry S271A/F307A): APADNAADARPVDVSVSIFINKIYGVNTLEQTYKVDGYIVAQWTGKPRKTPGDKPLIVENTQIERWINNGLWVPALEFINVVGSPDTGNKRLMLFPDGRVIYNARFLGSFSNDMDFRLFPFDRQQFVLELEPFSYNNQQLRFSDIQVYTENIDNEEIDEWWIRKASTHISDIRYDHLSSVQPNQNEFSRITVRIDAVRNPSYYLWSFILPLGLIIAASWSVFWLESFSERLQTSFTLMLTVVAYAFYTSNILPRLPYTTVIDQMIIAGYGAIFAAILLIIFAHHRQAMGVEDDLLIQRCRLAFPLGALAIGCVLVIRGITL
Text: as §1, §2

ELIC F307A = test system: ELIC F307A; set-up: method as in Henault et al.[9], [18], [29]; conditions: Xenopus laevis oocytes; ±SD; n=8; ref Henault et al.[9], [18], [29]; cited from earlier work
ELIC I215A = molecular target: T11, ELIC I215A (Dickeya chrysanthemi, UniProt P0C7B7, I215A); experiment: TEVC cysteamine-induced current, ELIC I215A; format: cell-based; conditions: Xenopus laevis oocytes; ±SD; n=8
T11 construct: expressed in transfected cells; host or cells: Xenopus laevis oocytes injected with cRNA
T11 sequence (P0C7B7 whole entry I215A): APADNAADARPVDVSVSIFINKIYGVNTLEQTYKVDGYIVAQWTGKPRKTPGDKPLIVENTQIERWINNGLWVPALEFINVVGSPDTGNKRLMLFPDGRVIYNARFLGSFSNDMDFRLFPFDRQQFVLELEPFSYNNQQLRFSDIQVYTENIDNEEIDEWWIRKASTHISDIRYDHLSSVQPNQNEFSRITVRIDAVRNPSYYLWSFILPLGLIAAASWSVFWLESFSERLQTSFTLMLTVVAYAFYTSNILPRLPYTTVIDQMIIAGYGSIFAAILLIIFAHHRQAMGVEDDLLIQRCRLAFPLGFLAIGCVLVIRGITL
Text: as §1, §2

NCCS [cysteamine]
EC50 (ELIC I319A): 860 ± 160 µM | −logEC50 (ELIC I319A): 3.06 ± 0.08 | EC50 (ELIC I310A): 880 ± 90 µM | −logEC50 (ELIC I310A): 3.05 ± 0.04 | EC50 (ELIC L213A): 320 ± 20 µM | −logEC50 (ELIC L213A): 3.49 ± 0.03 | EC50 (ELIC W219A + F303A): 550 ± 120 µM | −logEC50 (ELIC W219A + F303A): 3.26 ± 0.10 | EC50 (ELIC G268A): 1190 ± 140 µM | −logEC50 (ELIC G268A): 2.92 ± 0.05 | desensitization kinetics (ELIC P304A): substantially altered desensitization kinetics | EC50 (ELIC F222A + C299A): 100 ± 20 µM | −logEC50 (ELIC F222A + C299A): 4.00 ± 0.09 | EC50 (ELIC S271A + F303A): 620 ± 130 µM | −logEC50 (ELIC S271A + F303A): 3.21 ± 0.09 | EC50 (ELIC L204A): 3550 ± 310 µM | −logEC50 (ELIC L204A): 2.45 ± 0.04 | EC50 (ELIC W219A): 910 ± 50 µM | −logEC50 (ELIC W219A): 3.04 ± 0.02 | EC50 (ELIC L295A): 500 ± 100 µM | −logEC50 (ELIC L295A): 3.30 ± 0.09 | EC50 (ELIC I296A): 270 ± 30 µM | −logEC50 (ELIC I296A): 3.57 ± 0.05 | EC50 (ELIC G318A): 760 ± 130 µM | −logEC50 (ELIC G318A): 3.12 ± 0.08 | EC50 (ELIC W219A + F307A): 450 ± 70 µM | −logEC50 (ELIC W219A + F307A): 3.35 ± 0.07 | EC50 (ELIC F303A): 190 ± 70 µM | −logEC50 (ELIC F303A): 3.73 ± 0.17 | EC50 (ELIC S271A + F307A): 770 ± 90 µM | −logEC50 (ELIC S271A + F307A): 3.11 ± 0.05 | EC50 (ELIC F307A): 570 ± 90 µM | −logEC50 (ELIC F307A): 3.24 ± 0.07 | EC50 (ELIC I215A): 320 ± 40 µM | −logEC50 (ELIC I215A): 3.49 ± 0.05
